From patent US4849425A, “Readily absorbable pharmaceutical composition” (Ishihara Sangyo Kaisha Ltd., priority 1985, dated 1989)

Experiments:
[1] = Absorbability through the gut, oral suspension in cyclodextrin solutions, plasma concentration in rats (Test Example 3); assay type: in vivo, Wistar male rats; conditions: 40% dimethyl β-type cyclodextrin vs control (0.5% sodium carboxymethyl cellulose), 20 mg/kg, rat
Method: (§1) 20 mg of Compound No. 3 was taken into a mortar, and 5 ml of an aqueous solution containing 1.7% of β-type cyclodextrin or 2% or 40% of dimethyl β-type cyclodextrin was added under stirring to obtain a suspension of Compound No. 3. The suspension was orally administered by an oral sonde to a group of three Wistar male rats (body weight: 200-250g). The dose of Compound No. 3 was 20 mg/kg rat body weight. Further, Compound No. 3 was likewise suspended in an aqueous solution containing 0.5% of sodium salt of carboxymethyl cellulose, and the suspension was used as the control ( in FIG. 3). After the administration, the blood was periodically sampled, and the plasma was separated. After the removal of protein by acetonitrile, Compound No. 3 in the plasma was quantitatively analyzed by a high speed liquid chromatography as shown in Test Example 1.

[2] = Absorbability through the gut, oral, various dispersing solvents, plasma concentration in rats (Test Example 4); assay type: in vivo, Wistar male rats; conditions: 20 mg/kg, rat
Method: as §1, with “3 was taken into a mortar, and 5 ml of an aqueous solution containing 1.7% of β-type cyclodextrin or 2% or 40% of dimethyl β-type cyclodextrin was added under stirring to obtain a suspension of Compound No.” left out
The changes with time of the concentration of Compound No. 3 in the plasma after the oral administration were studied in the same manner as in Test Example 3 by using an aqueous solution of 10% (weight/volume) Polysolvate 80 (Tween 80, manufactured by Nakayai Kagaku K.K.), 10% (weight/volume) polyoxyethylene hardened caster oil 60 (manufactured by Nikko Chemical K.K.), 100% polyethylene glycol 400 or 50% (weight/volume) dimethyl β-type cyclodextrin, as the dispersing solvent for Compound No. 3, and an aqueous solution of 0.5% (weight/volume) sodium salt of carboxymethyl cellulose, as the control. […]

[3] = Rectal suppository, plasma concentration in rats (Test Example 6); assay type: in vivo, Wistar male rat; conditions: rat; for Concentration in the plasma / concentration at 0.5 h / concentration at 1 h / concentration at 2 h / concentration at 4 h: rectal; for Concentration in the plasma: 0; for concentration at 0.5 h / concentration at 1 h / concentration at 2 h / concentration at 4 h: plasma
Method: A Witepsol W-35 suppository (weight: about 45 mg) comprising 1.8 mg of Compound No. 3 and 12.5% (weight/volume) of dimethyl β-type cyclodextrin, was administered to the rectum of each Wistar male rat having a body weight of about 90 g (a group of three rats). Then, the blood was periodically sampled from the jugular vein, and the concentration of Compound No. 3 in the plasma was measured. To a control group, a suppository contained no cyclodextrin was administered. It is evident that by the addition of dimethyl β-type cyclodextrin, the absorbability of Compound No. 3 increased.

[4] = Oral capsules, plasma concentration in beagle dogs (Test Example 7); assay type: in vivo; conditions: for Concentration in the plasma: 0
Method: The capsules prepared in Example 3 corresponding to 20 mg/kg of Compound No. 3 were orally administered to three beagle dogs (male: body weight: 5 kg). Then, the blood was periodically sampled from the branchium vein, and the concentration of Compound No. 3 in the plasma was measured. To the control group, a suspension of Compound No. 3 (20 mg/ml) in an aqueous solution containing 0.5% of sodium salt of carboxymethyl cellulose was administered. It is evident that the present invention, the absorbability of Compound No. 3 increased.

[5] = 1.8 mg, Witepsol W-35 suppository, 12.5% (w/v) dimethyl β-type cyclodextrin
[6] = 1.8 mg, control suppository without cyclodextrin
[7] = dog, plasma, po, 20 mg/kg, control, suspension in 0.5% sodium salt of carboxymethyl cellulose
[8] = dog, plasma, po, 20 mg/kg, polyethylene glycol 400 capsules of Example 3, oral 20 mg/kg

O=C(NC(=O)c1ccccc1[N+](=O)[O-])Nc1ccc(Oc2ncc(Br)cn2)c(Cl)c1 [Compound No. 3, N-(2-nitrobenzoyl)-N'-[4-(5-bromo-2-pyrimidinyloxy)-3-chlorophenyl]urea]
concentration in the plasma relative to the control [1]: about 3.5 times | concentration in the plasma as compared with the control ([2]; 50% (w/v) dimethyl β-type cyclodextrin vs 0.5% sodium carboxymethyl cellulose): about 7.5 times | concentration in the plasma as compared with the control ([2]; 100% polyethylene glycol 400 vs 0.5% sodium carboxymethyl cellulose): about 5 times | Concentration in the plasma ([3]; Witepsol W-35 suppository, 1.8 mg, 12.5% (w/v) dimethyl β-type cyclodextrin): 0 ng/mL | absorbability ([3]; addition of dimethyl β-type cyclodextrin, rectal suppository): increased | Concentration in the plasma ([3]; control suppository without cyclodextrin): 0 ng/mL | concentration at 0.5 h [3, 5]: 320 ng/mL | concentration at 1 h [3, 5]: 480 ng/mL | concentration at 2 h [3, 5]: 940 ng/mL | concentration at 4 h [3, 5]: 990 ng/mL | concentration at 0.5 h [3, 6]: 40 ng/mL | concentration at 1 h [3, 6]: 80 ng/mL | concentration at 2 h [3, 6]: 110 ng/mL | concentration at 4 h [3, 6]: 90 ng/mL | Concentration in the plasma ([4]; control, suspension in 0.5% sodium salt of carboxymethyl cellulose, oral): 0 ng/mL | concentration at 1 h [4, 7]: 70 ng/mL | concentration at 2 h [4, 7]: 100 ng/mL | concentration at 1 h [4, 8]: 610 ng/mL | concentration at 2 h [4, 8]: 1120 ng/mL | concentration at 4 h ([4]; dog, plasma, po, 20 mg/kg, polyethylene glycol 400 capsules of Example 3, oral 20 mg/kg, 4 hrs): 1110 ng/mL | absorbability ([4]; polyethylene glycol 400 capsules of Example 3, oral): increased | Concentration in the plasma ([4]; polyethylene glycol 400 capsules of Example 3, oral 20 mg/kg): 0 ng/mL
